Measurements reported in patent US11504382B2, “Tricyclic inhibitors of Hepatitis B virus” (Antios Therapeutics, Inc., priority 2018, dated 2022).
pEC50: −log10 of the molar value.

System: HBV
Test: HBV inhibition assay in HepAD38 cells (extracellular HBV DNA by direct qPCR)
Type: cell-based, Hepatitis B virus
Conditions: 0.1 μM, 96 hours, relative to non-treated reference

Question: For CCOC(=O)N1CC2COc3c(cn(C)c3C(=O)Nc3ccc(F)c(C#N)c3)S(=O)(=O)NC2C1 (single isomer, unassigned) [Example E46, Ethyl 8-((3-cyano-4-fluorophenyl)carbamoyl)-7-methyl-3a,4,10,10a-tetrahydro-1H,7H-dipyrrolo[3,4-b:3′,4′-f][1,4,5]oxathiazocine-2(3H)-carboxylate 5,5-dioxide (Chiral 3aS,10aS or 3aR,10aR - Stereochemistry unknown)], which “Anti HBV Activity (conc μM)” value is on record?
Answer: Its value is “B (0.1) (HBV inhibition less than 50% at the concentration indicated in the table)”.

Question: Which “Anti HBV Activity (conc μM)” value does the source give for “Ethyl 8-((3-chloro-4-fluorophenyl)carbamoyl)-7-methyl-3a,4,10,10a-tetrahydro-1H,7H-dipyrrolo[3,4-b:3′,4′-f][1,4,5]oxathiazocine-2(3H)-carboxylate 5,5-dioxide (3aS,10aS) [Example E42]” here?
Answer: The value was “B (0.1) (HBV inhibition less than 50% at the concentration indicated in the table)”.

Same assay, conditions: 96 hours, 8-point dose-response curve, read-out: HBV inh EC50

Question: How did the pEC50 turn out when CCOC(=O)N1CC2NS(=O)(=O)c3cn(C)c(C(=O)Nc4cc(F)c(F)c(F)c4)c3OCC2(C)C1 (single isomer, unassigned) [Example E92, Ethyl 7,10a-dimethyl-8-((3,4,5-trifluorophenyl)carbamoyl)-3a,4,10,10a-tetrahydro-1H,7H-dipyrrolo[3,4-b:3′,4′-f][1,4,5]oxathiazocine-2(3H)-carboxylate 5,5-dioxide (Chiral 3aS,10aS or 3aR,10aR - Stereochemistry unknown)] was run?
Answer: The pEC50 was > 6.00.

Question: With CCOC(=O)N1CC2NS(=O)(=O)c3cn(C)c(C(=O)Nc4ccc(F)c(C)c4)c3OCC2(C)C1 (single isomer, unassigned) [Example E94, Ethyl 8-((4-fluoro-3-methylphenyl)carbamoyl)-7,10a-dimethyl-3a,4,10,10a-tetrahydro-1H,7H-dipyrrolo[3,4-b:3′,4′-f][1,4,5]oxathiazocine-2(3H)-carboxylate 5,5-dioxide(Chiral 3aS,10aS or 3aR,10aR - Stereochemistryunknown)] as the compound, how does the pEC50 read?
Answer: The pEC50 was > 6.00.

Question: With CCOC(=O)N1CC2NS(=O)(=O)c3cn(C)c(C(=O)Nc4ccc(F)c(C)c4)c3OCC2(C)C1 (single isomer, unassigned) [Example E93, Ethyl 8-((4-fluoro-3-methylphenyl)carbamoyl)-7,10a-dimethyl-3a,4,10,10a-tetrahydro-1H,7H-dipyrrolo[3,4-b:3′,4′-f][1,4,5]oxathiazocine-2(3H)-carboxylate 5,5-dioxide (Chiral 3aS,10aS or 3aR,10aR - Stereochemistry unknown)] as the compound, how does the pEC50 read?
Answer: Its pEC50 is > 6.00.

Question: How did the pEC50 turn out when CCOC(=O)N1CC2NS(=O)(=O)c3cn(C)c(C(=O)Nc4cc(F)c(F)c(F)c4)c3OCC2(C)C1 (single isomer, unassigned) [Example E91, Ethyl 7,10a-dimethyl-8-((3,4,5-trifluorophenyl)carbamoyl)-3a,4,10,10a-tetrahydro-1H,7H-dipyrrolo[3,4-b:3′,4′-f][1,4,5]oxathiazocine-2(3H)-carboxylate 5,5-dioxide (Chiral 3aS,10aS or 3aR,10aR - Stereochemistry unknown)] was run?
Answer: Its pEC50 is > 6.00.

Same assay, conditions: Hepatitis B virus, 0.05 μM, 96 hours, relative to non-treated reference, read-out: Anti HBV Activity (conc μM)

Question: With Cc1cc(NC(=O)c2c3c(cn2C)S(=O)(=O)NC2CNCC2CO3)ccc1F (stereo not drawn) [Example E47, cis-N-(4-fluoro-3-methylphenyl)-7-methyl-2,3,3a,4,10,10a-hexahydro-1H,7H-dipyrrolo[3,4-b:3′,4′-f][1,4,5]oxathiazocine-8-carboxamide 5,5-dioxide hydroiodide] as the compound, how does the inhibition at 0.05 µM read?
Answer: Its inhibition at 0.05 µM is > 50%.

Same assay, conditions: Hepatitis B virus, 0.1 μM, 96 hours, relative to non-treated reference, read-out: Anti HBV Activity (conc μM)

Question: Which inhibition at 0.1 µM does the source give for C[C@H](N)C(=O)N1C[C@@H]2COc3c(cn(C)c3C(=O)Nc3cc(F)c(F)c(F)c3)S(=O)(=O)N[C@@H]2C1 (mixture of isomers) [Example E67, cis-2-(L-alanyl)-7-methyl-N-(3,4,5-trifluorophenyl)-2,3,3a,4,10,10a-hexahydro-1H,7H-dipyrrolo[3,4-b:3′,4′-f][1,4,5]oxathiazocine-8-carboxamide 5,5-dioxide] here?
Answer: Its inhibition at 0.1 µM is < 50%.

Question: For CC(C)S(=O)(=O)N1CC2COc3c(cn(C)c3C(=O)Nc3cc(F)c(F)c(F)c3)S(=O)(=O)NC2C1 (racemic) [Example E18, cis-2-(isopropylsulfonyl)-7-methyl-N-(3,4,5-trifluorophenyl)-2,3,3a,4,10,10a-hexahydro-1H,7H-dipyrrolo[3,4-b:3′,4′-f][1,4,5]oxathiazocine-8-carboxamide 5,5-dioxide], which inhibition at 0.1 µM is on record?
Answer: The inhibition at 0.1 µM was > 50%.

Question: With Cn1cc2c(c1C(=O)Nc1cc(F)c(F)c(F)c1)OCC1CN(c3ccccn3)CC1NS2(=O)=O (stereo not drawn) [Example E81, cis-7-methyl-2-(pyridin-2-yl)-N-(3,4,5-trifluorophenyl)-2,3,3a,4,10,10a-hexahydro-1H,7H-dipyrrolo[3,4-b:3′,4′-f][1,4,5]oxathiazocine-8-carboxamide 5,5-dioxide] as the compound, how does the inhibition at 0.1 µM read?
Answer: Its inhibition at 0.1 µM is > 50%.

Question: For CN1CC2COc3c(cn(C)c3C(=O)Nc3cc(F)c(F)c(F)c3)S(=O)(=O)NC2C1 (racemic) [Example E12, cis-2,7-dimethyl-N-(3,4,5-trifluorophenyl)-2,3,3a,4,10,10a-hexahydro-1H,7H-dipyrrolo[3,4-b:3′,4′-f][1,4,5]oxathiazocine-8-carboxamide 5,5-dioxide], which inhibition at 0.1 µM is on record?
Answer: The inhibition at 0.1 µM was > 50%.

Same assay, conditions: Hepatitis B virus, 1 μM, 96 hours, relative to non-treated reference, read-out: Anti HBV Activity (conc μM)

Question: Which inhibition at 1 µM does the source give for Cn1cc2c(c1C(=O)Nc1ccc(F)c(F)c1)OC[C@H]1C[C@H](C1)NS2(=O)=O [Example E5] here?
Answer: The inhibition at 1 µM was < 50%.

Question: With Cn1cc2c(c1C(=O)Nc1ccc(F)c(F)c1)OCC1CCCCN1S2(=O)=O (stereo not drawn) [Example E1, N-(3,4-difluorophenyl)-2-methyl-6,7,8,9,9a,10-hexahydro-2H-pyrido[1,2-e]pyrrolo[3,4-b][1,4,5]oxathiazepine-1-carboxamide 4,4-dioxide] as the compound, how does the inhibition at 1 µM read?
Answer: The inhibition at 1 µM was < 50%.

Same assay, conditions: Hepatitis B virus, 96 hours, 8-point dose-response curve, read-out: HBV inh EC50

Question: With Cc1cc(NC(=O)c2c3c(cn2C)S(=O)(=O)NC2CN(C(=O)c4ncon4)CC2CO3)ccc1F (stereo not drawn) [Example E63, cis-N-(4-fluoro-3-methylphenyl)-7-methyl-2-(1,2,4-oxadiazole-3-carbonyl)-2,3,3a,4,10,10a-hexahydro-1H,7H-dipyrrolo[3,4-b:3′,4′-f][1,4,5]oxathiazocine-8-carboxamide 5,5-dioxide] as the compound, how does the pEC50 read?
Answer: Its pEC50 is > 6.00.

Question: With Cc1nnc(C(=O)N2C[C@H]3COc4c(cn(C)c4C(=O)Nc4ccc(F)c(C)c4)S(=O)(=O)N[C@H]3C2)s1 [Example E107, (3aR,10aR)—N-(4-fluoro-3-methylphenyl)-7-methyl-2-(5-methyl-1,3,4-thiadiazole-2-carbonyl)-2,3,3a,4,10,10a-hexahydro-1H,7H-dipyrrolo[3,4-b:3′,4′-f][1,4,5]oxathiazocine-8-carboxamide 5,5-dioxide] as the compound, how does the pEC50 read?
Answer: Its pEC50 is > 6.00.

Question: How did the pEC50 turn out when Cc1cc(NC(=O)c2c3c(cn2C)S(=O)(=O)N[C@H]2CN(C(=O)C4(C)CCCO4)C[C@H]2CO3)ccc1F (stereo partly drawn) [Example E111, (3aR,10aR)—N-(4-fluoro-3-methylphenyl)-7-methyl-2-(2-methyltetrahydrofuran-2-carbonyl)-2,3,3a,4,10,10a-hexahydro-1H,7H-dipyrrolo[3,4-b:3′,4′-f][1,4,5]oxathiazocine-8-carboxamide 5,5-dioxide] was run?
Answer: Its pEC50 is > 6.00.

Question: Cc1cc(NC(=O)c2c3c(cn2C)S(=O)(=O)NC2CNCC2CO3)ccc1F (stereo not drawn) [Example E47, cis-N-(4-fluoro-3-methylphenyl)-7-methyl-2,3,3a,4,10,10a-hexahydro-1H,7H-dipyrrolo[3,4-b:3′,4′-f][1,4,5]oxathiazocine-8-carboxamide 5,5-dioxide hydroiodide] was tested. Which pEC50 did it give?
Answer: Its pEC50 is > 6.00.

Question: How did the pEC50 turn out when Cc1cc(NC(=O)c2c3c(cn2C)S(=O)(=O)NC2CN(C(=O)OC(C)(C)C)CC2CO3)ccc1F (stereo not drawn) [Example E145, Trans-Tert-Butyl 8-((4-fluoro-3-methylphenyl)carbamoyl)-7-methyl-3a,4,10,10a-tetrahydro-1H,7H-dipyrrolo[3,4-b:3′,4′-f][1,4,5]oxathiazocine-2(3H)-carboxylate 5,5-dioxide] was run?
Answer: Its pEC50 is > 6.00.

Question: How did the pEC50 turn out when Cc1nnc(N2C[C@H]3COc4c(cn(C)c4C(=O)Nc4cc(F)c(F)c(F)c4)S(=O)(=O)N[C@H]3C2)o1 [Example E120, (3aR,10aR)-7-methyl-2-(5-methyl-1,3,4-oxadiazol-2-yl)-N-(3,4,5-trifluorophenyl)-2,3,3a,4,10,10a-hexahydro-1H,7H-dipyrrolo[3,4-b:3′,4′-f][1,4,5]oxathiazocine-8-carboxamide 5,5-dioxide] was run?
Answer: Its pEC50 is > 6.00.

Question: Cc1cc(NC(=O)c2c3c(cn2C)S(=O)(=O)NC2CCN(C(=O)C4(C)COC4)CC2CO3)ccc1F (racemic) [Example E126, Cis-N-(4-fluoro-3-methylphenyl)-2-methyl-8-(3-methyloxetane-3-carbonyl)-5,5a,6,7,8,9,9a,10-octahydro-2H-pyrido[4,3-f]pyrrolo[3,4-b][1,4,5]oxathiazocine-1-carboxamide 4,4-dioxide] was tested. Which pEC50 did it give?
Answer: The pEC50 was > 6.00.

Question: Cc1cc(NC(=O)c2c3c(cn2C)S(=O)(=O)N[C@H]2CN(C(=O)OC(C)(C)C)C[C@@H]2CO3)ccc1F (single isomer, unassigned) [Example E152] was tested. Which pEC50 did it give?
Answer: The pEC50 was > 6.00.

Question: How did the pEC50 turn out when Cc1nnc(C(=O)N2C[C@@H]3COc4c(cn(C)c4C(=O)Nc4ccc(F)c(C)c4)S(=O)(=O)N[C@@H]3C2)s1 (relative stereo) [Example E62, cis-N-(4-fluoro-3-methylphenyl)-7-methyl-2-(5-methyl-1,3,4-thiadiazole-2-carbonyl)-2,3,3a,4,10,10a-hexahydro-1H,7H-dipyrrolo[3,4-b:3′,4′-f][1,4,5]oxathiazocine-8-carboxamide 5,5-dioxide] was run?
Answer: The pEC50 was > 6.00.

Question: With Cc1cc(NC(=O)c2c3c(cn2C)S(=O)(=O)NC2CN(C(=O)C45CC(CO4)C5)CC2CO3)ccc1F (stereo not drawn) [Example E150, Trans-2-(2-oxabicyclo[2.1.1]hexane-1-carbonyl)-N-(4-fluoro-3-methylphenyl)-7-methyl-2,3,3a,4,10,10a-hexahydro-1H,7H-dipyrrolo[3,4-b:3′,4′-f][1,4,5]oxathiazocine-8-carboxamide 5,5-dioxide] as the compound, how does the pEC50 read?
Answer: Its pEC50 is > 6.00.

Question: CC(C)S(=O)(=O)N1CC2COc3c(cn(C)c3C(=O)Nc3cc(F)c(F)c(F)c3)S(=O)(=O)NC2C1 (racemic) [Example E18, cis-2-(isopropylsulfonyl)-7-methyl-N-(3,4,5-trifluorophenyl)-2,3,3a,4,10,10a-hexahydro-1H,7H-dipyrrolo[3,4-b:3′,4′-f][1,4,5]oxathiazocine-8-carboxamide 5,5-dioxide] was tested. Which pEC50 did it give?
Answer: Its pEC50 is > 6.00.

Question: CN1CC2COc3c(cn(C)c3C(=O)Nc3cc(F)c(F)c(F)c3)S(=O)(=O)NC2C1 (racemic) [Example E12, cis-2,7-dimethyl-N-(3,4,5-trifluorophenyl)-2,3,3a,4,10,10a-hexahydro-1H,7H-dipyrrolo[3,4-b:3′,4′-f][1,4,5]oxathiazocine-8-carboxamide 5,5-dioxide] was tested. Which pEC50 did it give?
Answer: Its pEC50 is > 6.00.

Question: With Cn1cc2c(c1C(=O)Nc1cc(F)c(F)c(F)c1)OCC1CN(c3nccc(=O)[nH]3)CC1NS2(=O)=O (stereo not drawn) [Example E59, cis-7-methyl-2-(6-oxo-1,6-dihydropyrimidin-2-yl)-N-(3,4,5-trifluorophenyl)-2,3,3a,4,10,10a-hexahydro-1H,7H-dipyrrolo[3,4-b:3′,4′-f][1,4,5]oxathiazocine-8-carboxamide 5,5-dioxide] as the compound, how does the pEC50 read?
Answer: The pEC50 was < 6.00.

Question: Cn1cc2c(c1C(=O)Nc1ccc(F)c(F)c1)OCC1CCCCN1S2(=O)=O (stereo not drawn) [Example E1, N-(3,4-difluorophenyl)-2-methyl-6,7,8,9,9a,10-hexahydro-2H-pyrido[1,2-e]pyrrolo[3,4-b][1,4,5]oxathiazepine-1-carboxamide 4,4-dioxide] was tested. Which pEC50 did it give?
Answer: Its pEC50 is < 6.00.
